Like-named read-outs stand apart in the source and are kept apart here. Blank lines part the entries; values can stand above or below the molecule they belong to.
Columns and labels:
[1] = test system: purine binding proteome (hALDH1 and hQR2); assay: ATP affinity array / ATP-Sepharose displacement elution of RBC purine binding proteome; parameters: species or system human; conditions: for proteins eluted from ATP affinity array (hALDH1 and hQR2): non-infected red cells, drug at [mM]; for proteins eluted from ATP-Sepharose (ALDH1 55 kDa, QR2 26 kDa): RBC extract, 5 mM drug (Example 2)
Description: ATP-affinity array chromatography. In whole mouse experiments, the animal (except for its tail, feet, skin and intestines) was frozen in liquid N2 and blended in buffer A containing 50 mM Hepes, pH 7.5, 50 mM NaCl, 10 mM MgCl2, 0.1% NONIDET- P40, 1 mM dithiothreitol, 1 μg/ml leupeptin, 100 μg/ml pefabloc and 10 μg/ml aprotinin. Mouse lysate was clarified by centrifugation for 1 hr at 100,000×g. For infected and non-infected RBC's˜1.5×10^9 cells were mixed with an equal volume of 2×buffer A, rocked for 30 min at 4° C., and clarified by centrifugation for 1 hr at 100,000×g. Supernatants were dialyzed overnight against 50 mM Hepes, pH 7.5, 50 mM NaCl, 10 mM MgCl2 and 1 mM dithiothreitol. […] Proteins were resolved by 12% SDS-PAGE and visualized by staining either with Coomassie brilliant Blue R-250 or silver nitrate. Alternatively, proteins were transferred to membrane GeneMate (Kaysville, Utah) in transfer buffer (25 mM Tris, 200 mM glycine, 20% methanol, and 0.01% SDS) for mixed peptide sequencing (Damer et al, J. Biol. Chem. 273:24396 (1998)). hALDH 1 and hQR2 purification and activity assays. Fresh human red blood cells (RBC) were obtained from Valley Biomedical, washed twice with PBS, and lysed in buffer B (0.1% Triton X, 50 mM Tris pH 7.5, 125 mM NaCl, 1 μg/mL aprotonin, 1 μg/mL pepstatin and 10 μg/mL PEFABLOC). Lysates were centrifuged twice at 125,000×g for 1 hr at 4° C. Cleared supernatant was filtered through a […] filter and loaded onto PQ-Sepharose. Pure hALDH was eluted with 5 mM NADH and pure hQR2 with 5 mM NMeN. The eluants were dialyzed overnight at 4° C. against 25 mM Tris pH 8.0 and 1 mM DTT. hALDHl was assayed as described in Table 2. Purified hQR2 was assayed at 22° C. in 100 μM N-methyldihydronicotinamide, 30 μM menadione, 0.1% Triton X-100, 50 mM Tris pH 8.5, 100 μM dicoumarol (unless stated otherwise). N-methyldihydronicotinamide was synthesized (Ortiz-Maldonado et al, Biochemistry 38(50):16636-16647 (1999)) and stored in 100 mM Tris-sulfate pH 8.0.
An ATP affinity array was charged with RBC and P. falciparum (blood stage) infected RBC extract.
chromatography. P. falciparum-infected or non-infected RBCs were lysed by mixing with an equal volume of 2×buffer A and rocking for 30 min at 4° C. 1×buffer A: 50 mM Hepes, pH 7.5, 50 mM NaCl, 10 mM MgCl2, 0.1% NONIDET-P40, 1 mM dithiothreitol, 1 μg/ml leupeptin, 100 μg/ml pefabloc and 1 μg/ml aprotinin. […] Proteins were resolved by 12% SDS-PAGE and visualized by staining with Coomassie brilliant blue R-250 or silver nitrate. Alternatively, proteins were transferred to PVM membrane (Kaysville, Utah) for mixed peptide sequencing (Damer et al, J. Biol. Chem. 273(38):24396-24405 (1998)).
To better understand the mechanism of the quinolines, an attempt was made to identify all quinoline interacting proteins in a cell or animal lysate. To achieve this, a functional proteomics approach was used as outlined in FIG. 7. In this strategy, three different, yet complementary approaches were conducted to identify and validate targets of the quinolines. In step one, termed displacement affinity chromatography, a specific sub-proteome from a cell is captured on an affinity matrix by virtue of its interaction with an immobilized ligand (FIG. 7, Step 1). The sup-proteome is captured after application of saturating amounts of cell lysate and extensive washing of the resin. The compounds of interest (in this case, the quinolines) are then applied to the matrix in parallel and allowed to interact with the bound proteome. […] In the second step, affinity matrices were created by directly linking the quinoline drugs to Sepharose, and after application of cell lysates, all proteins that specifically eluted from these matrices in the presence of drug were identified (FIG. 7 Step 2).

QR2 [2] = target: T1, QR2 (Homo sapiens, UniProt P16083); assay: hQR2 activity assay, enzyme purified from human RBC (Example 1); assay type: biochemical; parameters: Pure hALDH was eluted with 5 mM NADH and pure hQR2 with 5 mM NMeN; tissue Valley Biomedical (blood); host or cells: human red blood cells
T1 sequence (P16083 1-231): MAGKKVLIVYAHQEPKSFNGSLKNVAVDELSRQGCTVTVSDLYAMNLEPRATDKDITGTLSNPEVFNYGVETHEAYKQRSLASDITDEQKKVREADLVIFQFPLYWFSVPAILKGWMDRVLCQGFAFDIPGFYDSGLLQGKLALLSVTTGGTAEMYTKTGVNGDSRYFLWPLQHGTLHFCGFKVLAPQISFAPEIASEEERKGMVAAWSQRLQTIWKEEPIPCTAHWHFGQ
Description: ATP-affinity array chromatography. In whole mouse experiments, the animal (except for its tail, feet, skin and intestines) was frozen in liquid N2 and blended in buffer A containing 50 mM Hepes, pH 7.5, 50 mM NaCl, 10 mM MgCl2, 0.1% NONIDET- P40, 1 mM dithiothreitol, 1 μg/ml leupeptin, 100 μg/ml pefabloc and 10 μg/ml aprotinin. Mouse lysate was clarified by centrifugation for 1 hr at 100,000×g. For infected and non-infected RBC's˜1.5×10^9 cells were mixed with an equal volume of 2×buffer A, rocked for 30 min at 4° C., and clarified by centrifugation for 1 hr at 100,000×g. Supernatants were dialyzed overnight against 50 mM Hepes, pH 7.5, 50 mM NaCl, 10 mM MgCl2 and 1 mM dithiothreitol. […] Lysates were centrifuged twice at 125,000×g for 1 hr at 4° C. […] Pure hALDH was eluted with 5 mM NADH and pure hQR2 with 5 mM NMeN. The eluants were dialyzed overnight at 4° C. against 25 mM Tris pH 8.0 and 1 mM DTT. hALDHl was assayed as described in Table 2. Purified hQR2 was assayed at 22° C. in 100 μM N-methyldihydronicotinamide, 30 μM menadione, 0.1% Triton X-100, 50 mM Tris pH 8.5, 100 μM dicoumarol (unless stated otherwise).
For QR2 Kd apparent values determined using the expression [formula]
The Kd was determined as [formula]
Where Ao=rate in the absence of drug; Aapp=rate+drug; [M]=concentration of menadione.

[3] = test system: Plasmodium falciparum strain 3D7; assay: P. falciparum growth by (3H)hypoxanthine uptake; assay type: cell-based; conditions: in vitro
Description: Plasmodium cultures. Plasmodium falciparum strain 3D7 was obtained from the MR4/ATCC and grown according to the included specifications. Parasites were harvested by saponin lysis as previously described (Schlichtherle et al (eds) Methods in Malaria Research 77(MR4/ATCC, Manasas, Va. 2000). P. falciparum growth was measured by (^3H)hypoxanthine uptake as previously described (Schlichtherle et al (eds) Methods in Malaria Research 77(MR4/ATCC, Manasas, Va. 2000).
To determine the contribution of QR2 or ALDH1 inhibition to the antimalarial properties of the quinolines, known inhibitors of QR2 or ALDH1 were added to P. falciparum and its growth was measured. Known inhibitors of P. falciparum growth all had IC50 values in agreement with the literature (FIG. 12A). […] The explanation for this finding is likely to be related to the abilities of the drugs to penetrate the plasma membrane or their ability to become concentrated within P. falciparum infected RBCs.

malaria infection = assay: cell-based assays of infection
QR2 [4] = target: T1, QR2; assay: QR2 activity assay with recombinant QR2 (Example 2); assay type: biochemical; parameters: GST (N, cleaved yes); made in house; E. coli only by inference
Description: Cloning of human QR2. Human QR2 was PCR amplified from human liver cDNA (Clontech) with the following primers: 5′[…]-3′ and 5′-[…]-3′ and cloned into the pGEX-4T-2 GST expression vector (Pharmacia). GST-tagged QR2 was purified and the GST tag removed according to the manufacturers instructions.
(§1) ALDH1, QR2 and QR1 activity assays. […] Reaction products were separated with a gradient of acetonitrile in 10 mM triethylamine acetic acid. […] QR1 IC50 values were calculated using GraphPad Prism.

QR1 = QR1 (Oryctolagus cuniculus, UniProt U3KNP2); assay: QR1 activity assay (Example 2); assay type: biochemical, rabbit; parameters: QR1 was purified from rabbit liver as previously described; from tissue; host or cells: rabbit liver
Description: Purification of native ALDH1, QR2 and QR1. RBC extract was prepared as described above and applied to PQ-Sepharose equilibrated in buffer A. ALDH1 and QR2 were obtained by eluting the column with 5 mM b-NAD^+ and NMeH respectively.
as §1

[5] = substrate: CC1=CC(=O)c2ccccc2C1=O; assay: hQR2 activity assay, enzyme purified from human RBC (Example 1); assay type: biochemical; conditions: 22.0 °C
[6] = recombinant QR2, 50 μM NMeH, 5-30 μM menadione, read-out: QR2 K1 (μM) ± SEM
[7] = QR1 purified from rabbit liver, read-out: QR1 IC50 (μM) ± SEM

Chain of QR1 (U3KNP2 1-274): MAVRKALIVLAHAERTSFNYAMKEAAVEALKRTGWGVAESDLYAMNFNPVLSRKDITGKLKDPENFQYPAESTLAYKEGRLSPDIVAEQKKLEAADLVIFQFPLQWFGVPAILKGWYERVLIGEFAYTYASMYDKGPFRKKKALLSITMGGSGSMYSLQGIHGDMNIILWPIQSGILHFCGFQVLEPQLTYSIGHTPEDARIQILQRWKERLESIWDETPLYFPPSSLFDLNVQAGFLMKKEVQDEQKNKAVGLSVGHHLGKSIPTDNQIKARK

- proteins eluted from ATP affinity array (hALDH1 and hQR2) [1]: selectively eluted two proteins
- Kd (QR2 [2]; purified hQR2 from human RBC, menadione substrate, read-out: Kd(app)): 0.81 µM
Molecule: Cc1cc(N)c2ccccc2n1 [4AQ, 4 amino quinaldine]

Molecule: CCN(CC)c1ccc(C=O)cc1 [DEAB, diethylaminobenzaldehyde]
- IC50 [3]: 277 µM
- antimalarial activity (malaria infection): have antimalarial activity

Molecule: OC(c1cc(C(F)(F)F)nc2c(C(F)(F)F)cccc12)C1CCCCN1 (stereo not shown) [MQ, mefloquine]
- proteins eluted from ATP-Sepharose (ALDH1 55 kDa, QR2 26 kDa) [1]: selectively eluted proteins of 55 and 26 kDa
- proteins eluted from ATP affinity array (hALDH1 and hQR2) [1]: selectively eluted two proteins
- inhibition of QR2 activity (QR2 [4]): less potent inhibitors
- Ki (QR2 [4]; [6]): 17 ± 4 µM
- effect on QR1 activity (QR1): weakly inhibited
- IC50 (QR1; [7]): 616 ± 60 µM

Molecule: COc1cc(NC(C)CCCN)c2ncccc2c1 (stereo not shown) [PQ, primaquine]
- proteins eluted from ATP-Sepharose (ALDH1 55 kDa, QR2 26 kDa) [1]: selectively eluted proteins of 55 and 26 kDa
- proteins eluted from ATP affinity array (hALDH1 and hQR2) [1]: selectively eluted two proteins
- Ki (QR2 [4]): 1.04 ± 0.38 µM
- inhibition of QR2 activity (QR2 [4]): potent inhibitors
- IC50 (QR1): 124 ± 10 µM
- effect on QR1 activity (QR1): weakly inhibited
- Kd (QR2 [2]): 9.3 µM

- inhibition of QR2 activity (QR2 [4]): less potent inhibitors
- Ki (QR2 [4]; [6]): 252 ± 50 µM
- IC50 (QR1; [7]): 9.6 ± 0.8 µM
Molecule: C=C[C@H]1C[N@@]2CC[C@H]1C[C@H]2[C@H](O)c1ccnc2ccc(OC)cc12 [Q, quinine]

Molecule: CCN(CC)CCCC(C)Nc1c2ccc(Cl)cc2nc2ccc(OC)cc12 (stereo not shown) [QC, Quinacrine]
- Ki (QR2 [4]): 0.51 ± 0.11 µM
- inhibition of QR2 activity (QR2 [4]): potent inhibitors
- effect on QR1 activity (QR1): not affected
- IC50 (QR1; [7]): > 1000 µM

- IC50 ([3]; Plasmodium falciparum): 53.8 µM
Molecule: O=c1cc(-c2ccccc2)oc2cc(O)cc(O)c12 [chrysin]

- elution of hQR2, hALDH1 or any other protein from ATP affinity array ([1]; infected or non infected red cell extract): did not elute
Molecule: Nc1ccc(S(=O)(=O)c2ccc(N)cc2)cc1 [dapsone]

Molecule: O=c1c(O)c(-c2ccc(O)c(O)c2)oc2cc(O)cc(O)c12 [quercetin]
- IC50 ([3]; Plasmodium falciparum): 81.8 µM

B1: hQR2 (Homo sapiens) (protein)
chain: MAGKKVLIVYAHQEPKSFNGSLKNVAVDELSRQGCTVTVSDLYAMNLEPRATDKDITGTLSNPEVFNYGVETHEAYKQRSLASDITDEQKKVREADLVIFQFPLYWFSVPAILKGWMDRVLCQGFAFDIPGFYDSGLLQGKLALLSVTTGGTAEMYTKTGVNGDSRYFLWPLQHGTLHFCGFKVLAPQISFAPEIASEEERKGMVAAWSQRLQTIWKEEPIPCTAHWHFGQ
notes: Pure hALDH was eluted with 5 mM NADH and pure hQR2 with 5 mM NMeN; tissue Valley Biomedical (blood); host or cells: human red blood cells
- Km [5]: 14 µM

Source: patent US20030143645A1, “Quinone reductase 2 and aldehyde dehydrogenase as therapeutic targets” (priority 2001, published 2003)
